Test results: patent US11384063B2, “Modulators of estrogen receptor proteolysis and associated methods of use” (Arvinas Operations, Inc., priority 2017, dated 2022)
Read-outs that look alike come from different tables or passages of the source.

Key:
[1] = target: T1, ERα (Homo sapiens, UniProt P03372); assay: Estrogen receptor-alpha (ERα) degradation assay in MCF7 cells using In-Cell Western assay; assay type: cell-based; set-up: assessed for their activity in degrading ERα in MCF-7 cells via western blot; endogenous in cells; host or cells: MCF7 cells; conditions: ER-alpha degradation in MCF7 cells, 5 days of incubation
T1 sequence (P03372 1-595): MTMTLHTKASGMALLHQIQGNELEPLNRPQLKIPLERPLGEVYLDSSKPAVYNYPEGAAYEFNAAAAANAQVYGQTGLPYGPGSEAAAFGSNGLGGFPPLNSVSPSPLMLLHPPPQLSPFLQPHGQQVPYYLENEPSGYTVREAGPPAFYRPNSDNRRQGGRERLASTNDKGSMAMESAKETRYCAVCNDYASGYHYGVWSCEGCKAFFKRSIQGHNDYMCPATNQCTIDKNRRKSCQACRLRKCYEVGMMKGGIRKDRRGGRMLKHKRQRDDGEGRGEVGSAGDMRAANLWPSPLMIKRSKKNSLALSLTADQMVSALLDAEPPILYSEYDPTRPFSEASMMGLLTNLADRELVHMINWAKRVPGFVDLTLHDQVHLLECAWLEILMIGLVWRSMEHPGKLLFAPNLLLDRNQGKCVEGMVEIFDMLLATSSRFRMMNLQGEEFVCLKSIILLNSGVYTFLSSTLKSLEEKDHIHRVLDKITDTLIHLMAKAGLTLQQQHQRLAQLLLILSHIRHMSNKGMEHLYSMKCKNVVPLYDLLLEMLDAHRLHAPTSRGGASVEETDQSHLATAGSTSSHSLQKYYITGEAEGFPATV
Experimental: Estrogen Receptor-Alpha (ERα) Degradation Assay Using in-Cell Western™ Assay for Table 5.
Degradation of ERα by claimed compounds were determined in MCF7 cells using an In-Cell Western™ assay. Briefly, MCF7 cells were plated in 96-well plates (2000 cells per well in 100 μl media) and incubated at 37° C. under an atmosphere of 5% CO2 in a humidified incubator overnight. One-hundred (100) μI of media containing test compound (at 2x concentration) was added to the appropriate wells to provide 11 serially decreasing concentrations (top final concentration, 1 μM then 3-fold less for the next 10 concentrations); a vehicle control (DMSO) was also added for each compound. For each experiment, all compounds were assayed on duplicate plates. Cells were then incubated for 3 or 5 days in the above-mentioned environment. The assay was terminated by removal of media, a single wash with ice-cold PBS and the addition of 50 μl paraformaldehyde (PFA: 4% in PBS). After 15 minutes in PFA at room temperature, the cells were permeabilized in Tris-phosphate-buffered saline with Tween (0.1%) (TBST) supplemented with Triton X-100 (0.5%) for 15 minutes. Cells were then blocked in BSA (TBST with BSA, 3%) for one hour. Primary antibodies for the detection of ERa (rabbit monoclonal, 1:1000, Cell Signaling Technology Catalog #8644) and tubulin (mouse monoclonal, 1:5000, Sigma Catalog #T6074) in TBST with BSA (3%) were added. The cells were incubated overnight at 4° C. The cells were then washed thrice with TBST at room temperature and then incubated with anti-rabbit and anti-mouse fluorescently-labelled secondary antibodies (IRDye®; LI-COR; Lincoln, Nebr.) in LI-COR blocking buffer (Catalog #927-50000) for one hour at room temperature. Following 3 washes with TBST, the buffer was removed and the plates were read on an Odyssey® infrared imaging system (LI-COR®, Lincoln, Nebr.) at 700 nm and 800 nm. Using commercial software (ImageStudio™; LI-COR, Lincoln, Nebr.), the staining intensity for ERa and tubulin in each well was quantified and exported for analysis. For each data point, ERa intensity was normalized to tubulin intensity and for each compound all normalized intensity values were normalized to the vehicle control. DC50 and Dmax values were determined following a 4-parameter IC50 curve fit using ACAS dose response module (McNeil & Co Inc.).

[2] = target: T1, ERα; assay: ERE luciferase reporter gene assay in T47D-KBluc cells (target engagement); assay type: cell-based; set-up: T47D human breast cancer cells stably transfected with estrogen responsive element/promoter/luciferase reporter gene; host or cells: T47D-KBluc cells; conditions: 10% FBS, 24 hours, read-out: ER-α Luciferase IC50
How it was run: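 T47D-KBluc breast cancer cells, which carry a stable ERE-luciferase reporter, were grown in RPMI with 10% FBS (about 10 pM estrogen) and exposed to PROTACs for 24 h. The 12-point, 3-fold series ran from 300 nM to 2 pM. Luciferase was read after lysis, and IC50 was fitted from duplicates.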

[3] = Table 3 cereblon centric PROTACs
[4] = Table 1 cereblon centric PROTACs

SMILES | DC50 [1] | Dmax [1] | IC50 [2, 3] | IC50 [2, 4]
O=C1CCC(N2C(=O)c3ccc(NCCCN4CCCN(CCOc5ccc(Oc6c(-c7ccc(Br)cc7)sc7cc(O)ccc67)cc5)CC4)cc3C2=O)C(=O)N1 (stereo not drawn) [Compound 178, 5-[3-[4-[2-[4-[2-(4-bromophenyl)-6-hydroxy-benzothiophen-3-yl]oxyphenoxy]ethyl]-1,4-diazepan-1-yl]propylamino]-2-(2,6-dioxo-3-piperidyl)isoindoline-1,3-dione] | 1 to 10 nM | > 75% | 2.4 nM | –
O=C1CCC(N2Cc3cc(NCCCOCCCOCCOc4ccc(Oc5c(-c6ccc(Br)cc6)sc6cc(O)ccc56)cc4)ccc3C2=O)C(=O)N1 (stereo not drawn) [Compound 89, 3-[5-[3-[3-[2-[4-[2-(4bromophenyl)-6-hydroxy-benzothiophen-3-yl]oxyphenoxy]ethoxy]propoxy]propylamino]-1-oxo-isoindolin-2-yl]piperidine-2,6-dione] | 1 to 10 nM | 50 to 75% | – | 4.8 nM
O=C1CCC(N2Cc3c(ccc(N4CCN(C5CCN(CCOc6ccc(Oc7c(-c8ccc(C(F)(F)F)cc8)sc8cc(O)ccc78)cc6)CC5)CC4)c3F)C2=O)C(=O)N1 (stereo not drawn) [Compound 193, 3-[4-fluoro-5-[4-[1-[2-[4-[6-hydroxy-2-[4-(trifluoromethyl)phenyl]benzothiophen-3-yl]oxyphenoxy]ethyl]-4-piperidyl]piperazin-1-yl]-1-oxo-isoindolin-2-yl]piperidine-2,6-dione] | 1 to 10 nM | > 75% | 9.8 nM | –
COc1ccc(-c2sc3cc(O)ccc3c2Oc2ccc(N3CCC(CN4CCN(c5ccc6c(c5)CN(C5CCC(=O)NC5=O)C6=O)CC4)CC3)cc2)cc1 (stereo not drawn) [Compound 234, 3-[5-[4-[[1-[4-[6-hydroxy-2-(4-methoxyphenyl)benzothiophen-3-yl]-oxyphenyl]-4-piperidyl]methyl]piperazin-1-yl]-1-oxo-isoindolin-2-yl]piperidine-2,6-dione] | < 1 nM | 50 to 75% | 0.65 nM | –
O=C1CCC(N2C(=O)c3ccc(N4CCN([C@H]5C[C@H](Oc6ccc(Oc7c(-c8ccc(Br)cc8)sc8cc(O)ccc78)cc6)C5)CC4)cc3C2=O)C(=O)N1 (stereo partly drawn) [Compound 223, trans-5-[4-[3-[4-[2-(4-bromophenyl)-6-hydroxy-benzothiophen-3-yl]oxyphenoxy]cyclobutyl]piperazin-1-yl]-2-(2,6-dioxo-3-piperidyl)isoindoline-1,3-dione] | 10 to 100 nM | > 75% | 41.1 nM | –
O=C1CCC(N2Cc3cc(N4CCN(C5CC(Oc6ccc(Oc7c(-c8ccc(Br)cc8)sc8cc(O)ccc78)cc6)C5)CC4)ccc3C2=O)C(=O)N1 (stereo not drawn) [Compound 224, 3-[5-[4-[3-[4-[2-(4-bromophenyl)-6-hydroxy-benzothiophen-3-yl]oxyphenoxy]cyclobutyl]piperazin-1-yl]-1-oxo-isoindolin-2-yl]piperidine-2,6-dione] | 1 to 10 nM | 50 to 75% | 7.7 nM | –
O=C1CCC(N2Cc3nc(N4CCN(CC5CCN(c6ccc(Oc7c(-c8ccc(Br)cc8)sc8cc(O)ccc78)cc6)CC5)CC4)ccc3C2=O)C(=O)N1 (stereo not drawn) [Compound 235, 3-[2-[4-[[1-[4-[2-(4-bromophenyl)-6-hydroxy-benzothiophen-3-yl]oxyphenyl]-4-piperidyl]methyl]piperazin-1-yl]-5-oxo-7H-pyrrolo[3,4-b]pyridin-6-yl]piperidine-2,6-dione] | 1 to 10 nM | > 75% | 6.9 nM | –
O=C1CCC(N2Cc3cc(CNC(=O)C4CCN(CCOc5ccc(Oc6c(-c7ccc(Br)cc7)sc7cc(O)ccc67)cc5)CC4)ccc3C2=O)C(=O)N1 (stereo not drawn) [Compound 57, 1-(2-(4-(2-(4-bromophenyl)-6-hydroxybenzo[b]thiophen-3-yloxy)phenoxy)ethyl)-N-((2-(2,6-dioxopiperidin-3-yl)-1-oxoisoindolin-5-yl)methyl)piperidine-4-carboxamide] | 1 to 10 nM | 50 to 75% | – | 3 nM
O=C1CCC(N2Cc3cc(NCCCN4CCN(CCOc5ccc(Oc6c(-c7ccc(F)cc7)sc7cc(O)ccc67)cc5)CC4)ccc3C2=O)C(=O)N1 (stereo not drawn) [Compound 174, 3-[5-[3-[4-[2-[4-[2-(4-fluorophenyl)-6-hydroxy-benzothiophen-3-yl]oxyphenoxy]ethyl]piperazin-1-yl]propylamino]-1-oxo-isoindolin-2-yl]piperidine-2,6-dione] | < 1 nM | > 75% | 0.54 nM | –
O=C1CCC(N2Cc3cc(N4CCN(CCC5CCN(c6ccc(Oc7c(-c8ccc(F)cc8)sc8cc(O)ccc78)cc6)CC5)CC4)ccc3C2=O)C(=O)N1 (stereo not drawn) [Compound 229, 3-[5-[4-[2-[1-[4-[2-(4-fluorophenyl)-6-hydroxy-benzothiophen-3-yl]oxyphenyl]-4-piperidyl]ethyl]piperazin-1-yl]-1-oxo-isoindolin-2-yl]piperidine-2,6-dione] | 1 to 10 nM | > 75% | 1 nM | –
O=C1CCC(N2Cc3cc(OCCOCCOc4ccc(Oc5c(-c6ccc(Br)cc6)sc6cc(O)ccc56)cc4)ccc3C2=O)C(=O)N1 (stereo not drawn) [Compound 33, 3-[5-[2-[2-[4-[2-(4-bromophenyl)-6-hydroxy-benzothiophen-3-yl]oxyphenoxy]ethoxy]ethoxy]-1-oxo-isoindolin-2-yl]piperidine-2,6-dione] | 1 to 10 nM | 50 to 75% | – | 2.7 nM
O=C1CCC(N2C(=O)c3ccc(N4CC(CN5CCCN(CCOc6ccc(Oc7c(-c8ccc(Br)cc8)sc8cc(O)ccc78)cc6)CC5)C4)cc3C2=O)C(=O)N1 (stereo not drawn) [Compound 191, 5-(3-((4-(2-(4-((2-(4-bromophenyl)-6-hydroxybenzo[b]thiophen-3-yl)oxy)phenoxy)ethyl)-1,4-diazepan-1-yl)methyl)azetidin-1-yl)-2-(2,6-dioxopiperidin-3-yl)isoindoline-1,3-dione] | 1 to 10 nM | 50 to 75% | 1.8 nM | –
O=C1CCC(N2Cc3nc(N4CCN(CC5CCN(c6ccc(Oc7c(-c8ccc(Br)cc8)sc8cc(O)ccc78)cc6F)CC5)CC4)ccc3C2=O)C(=O)N1 (stereo not drawn) [Compound 239] | 10 to 100 nM | > 75% | 13.5 nM | –
O=C1CCC(N2C(=O)c3ccc(N4CCN(CC5CCN(c6ccc(Oc7c(-c8ccc(F)cc8)sc8cc(O)ccc78)cc6)CC5)CC4)cc3C2=O)C(=O)N1 (stereo not drawn) [Compound 227, 2-(2,6-dioxo-3-piperidyl)-5-[4-[[1-[4-[2-(4-fluorophenyl)-6-hydroxy-benzothiophen-3-yl]oxyphenyl]-4-piperidyl]methyl]piperazin-1-yl]isoindoline-1,3-dione] | 1 to 10 nM | > 75% | 7 nM | –
O=C1CCC(N2C(=O)c3ccc(N4CCN(C5CCN(CCOc6ccc(Oc7c(-c8ccc(Br)cc8)sc8cc(O)ccc78)cc6)CC5)CC4)cc3C2=O)C(=O)N1 (stereo not drawn) [Compound 183, 5-[4-[1-[2-[4-[2-(4-bromophenyl)-6-hydroxy-benzothiophen-3-yl]oxyphenoxy]ethyl]-4-piperidyl]piperazin-1-yl]-2-(2,6-dioxo-3-piperidyl)isoindoline-1,3-dione] | 10 to 100 nM | 50 to 75% | 2.5 nM | –
